Entries after “also recorded” stand apart in the source; their conditions may differ.
Legend:
[1] = test system: breast cancer; experiment: Retrospective cohort analysis of claims data: 1-year incidence of breast cancer (Objective A); format: in vivo, women
From the text: (§1) We set out to assess the 1-year incidence rate of breast cancer among women treated with prasterone compared to matched controls of untreated VVA women (Objective A). We also assessed the 1-year recurrence rate of breast cancer among women treated with prasterone with a history of breast cancer compared to matched controls of untreated VVA women (Objective B).
(§2) In order to evaluate whether total exposure to prasterone in the follow-up window alters the results of the primary objectives A and B, we used sensitivity analyses to stratify patients based on cumulative days of supply.
(§3) This retrospective cohort analysis was based on claims data from the Integrated Dataverse (IDV) database from Symphony Health Solutions. Data included in the analysis spanned a 5-year period from February 2015 through January 2020. For both objectives, the index date was defined as the first prasterone prescription fill date for treated women and as the initial VVA diagnosis date for untreated women (FIG. 1). Data were included from women who were at least 45 years of age and had at least one year of data available before and after the index date. Women treated with vaginal estrogen or ospem ifene were excluded. History of breast cancer prior to the index date was assessed. Before matching, 47,395 patients with at least one prescription of intravaginal prasterone (6.5 mg suppository) filled and no history of breast cancer were included and 2,986 with a history of breast cancer. Before matching again, 669,623 women were included in the pool of untreated VVA patients without a history of breast cancer, and 53,896 with a history of breast cancer (FIG. 2).
(§4) To ensure a balanced risk profile across treatment groups the women treated with prasterone were matched with a 1:1 ratio to untreated women based on the following parameters (FIG. 3): • Calendar year • Age • Prior to the index date: • Cancer diagnosis • Breast cancer diagnosis • Use of chemotherapy • Family history of breast cancer • Mammography • Use of estrogen therapy • Obesity and hyperlipidemia • Assessed during the 12 months prior to the index date • Charlson Elixhauser comorbidity index
(§5) Primary objectives A and B included all women meeting the inclusion criteria and having at least one prescription of prasterone filled. We then set minimum exposure thresholds to stratify patients based on the length of exposure. Thresholds were set at least 90 or 180 days of supply. Incidence (objective A) and recurrence (objective B) analyses were conducted in these new groups.

[2] = test system: breast cancer; experiment: Retrospective cohort analysis of claims data: 1-year recurrence of breast cancer in women with a history of breast cancer (Objective B); format: in vivo
From the text: as §1, §2, §3, §4, §5

[3] = test system: breast intraepithelial neoplasia; details: 5 mg/d for 3 years; 55% of women menopaused; cited from earlier work
[4] = test system: breast cancer; details: postmenopausal women; testosterone supplements; cited from earlier work
[5] = all ages (≥45 years old), any days of supply
[6] = minimum exposure threshold either 90 days or 180 days of supply

For `C[C@]12CC[C@H](O)CC1=CC[C@@H]1[C@@H]2CC[C@]2(C)C(=O)CC[C@@H]12` [Intravaginal prasterone, dehydroepiandrosterone], the “% of incidence of breast cancer” value ([1]; 45 to 54 years old) was 0.34%, the “incidence ratio (prasterone / untreated VVA)” value ([1]; 45 to 54 years old) was 0.85 and the “% of incidence of breast cancer” value ([1]; 55 to 64 years old) was 0.37%. For the same molecule, the “incidence ratio (prasterone / untreated VVA)” value ([1]; 55 to 64 years old) was 0.87, the “% of incidence of breast cancer” value ([1]; 65 years old and older) was 0.58% and the “incidence ratio (prasterone / untreated VVA)” value ([1]; 65 years old and older) was 1.03. For the same molecule, the “incidence ratio (prasterone / untreated VVA)” value [1, 5] was 0.89, the “% of incidence of breast cancer” value ([1]; all ages (≥45 years old), any days of supply, 1-year, 6.5 mg suppository) was 0.39% and the “% of incidence of breast cancer” value ([1]; at least 90 days of supply) was 0.28%. For the same molecule, the “incidence ratio (prasterone / untreated VVA)” value ([1]; at least 90 days of supply) was 0.55, the “% of incidence of breast cancer” value ([1]; at least 180 days of supply) was 0.25% and the “incidence ratio (prasterone / untreated VVA)” value ([1]; at least 180 days of supply) was 0.48. For the same molecule, the “incidence of breast cancer compared to the untreated VVA group (in words)” value ([1]; at least one prescription filled, all ages and age groups 45-54, 55-64, 65+) was “no statistically significant difference; also recorded: no statistical difference”, the “incidence of breast cancer compared to the untreated VVA groups (in words)” value [1, 6] was “significant reduction” and the “% of recurrence of breast cancer” value ([2]; 45 to 54 years old) was 41.63%. For the same molecule, the “recurrence ratio (prasterone / untreated VVA)” value ([2]; 45 to 54 years old) was 0.84, the “% of recurrence of breast cancer” value ([2]; 55 to 64 years old) was 31.42% and the “recurrence ratio (prasterone / untreated VVA)” value ([2]; 55 to 64 years old) was 0.82. For the same molecule, the “% of recurrence of breast cancer” value ([2]; 65 years old and older) was 32.77%, the “recurrence ratio (prasterone / untreated VVA)” value ([2]; 65 years old and older) was 0.91 and the “recurrence ratio (prasterone / untreated VVA)” value [2, 5] was 0.85. For the same molecule, the “% of recurrence of breast cancer” value ([2]; all ages (≥45 years old), any days of supply, history of breast cancer) was 34.21%, the “Recurrence analysis: % of incidence” value ([2]; at least 90 days of supply) was 30.48% and the “recurrence ratio (prasterone / untreated VVA)” value ([2]; at least 90 days of supply) was 0.83. The “Recurrence analysis: % of incidence” value ([2]; at least 180 days of supply) was 30.29%, the “recurrence ratio (prasterone / untreated VVA)” value ([2]; at least 180 days of supply) was 0.78 and the “recurrence of breast cancer compared to the untreated VVA group (in words)” value ([2]; at least one prescription filled, all ages and three age groups) was “significantly lower; also recorded: significant reduction of recurrence”. The “recurrence of breast cancer compared to the untreated VVA groups (in words)” value [2, 6] was “significant reduction”.

In the case of `CC/C(=C(\c1ccccc1)c1ccc(OCCN(C)C)cc1)c1ccccc1` [Tamoxifen], the “recurrence of breast intraepithelial neoplasia (in words)” value [3] is listed as “halve the recurrence of breast intraepithelial neoplasia”.

In the case of `C[C@]12CC[C@H]3[C@@H](CCC4=CC(=O)CC[C@@]43C)[C@@H]1CC[C@@H]2O` [testosterone], the “breast cancer incidence (in words)” value [4] is given as “reduction of the breast cancer incidence”.

Reference: US11690852B2, “Reduction of the incidence or recurrence of breast cancer in postmenopausal women treated with intravaginal sex steroid precursor” (Endorecherche, Inc., priority 2020, dated 2023)
